Where two headings read alike, the source gives them in different places.
Columns and labels:
[1] = tested on: CSE reflex (arterial blood pressure); test: Vasodilating activity: weakening of the carotid occlusion (CSE) reflex blood pressure rise in anesthetized rabbits; format: in vivo, rabbit; settings: for ED (30 mm Hg): Oryctolagus cuniculus, iv; for BQ (ID50 fcor / ED-30 mm Hg): ratio of beta-blocking ID50 to vasodilating ED-30
Description: Rabbits were anesthetized with 26%-urethane 5 ml/kg i.v. For a continual measurement of the arterial blood pressure a catheter was implanted into the Arteria femoralis. The blood pressure was measured by means of an electromechanical pressure transducer (Statham P 23/Db). The impulses were registered on a direct printer and after calibration evaluated with a mercury manometer. After determining the starting value, both carotid arteries (Aa. carotides) were occluded for 2 min and thereby the blood pressure temporarily raised (Carotis-Sinus-Relief Reflex-CSE). Following that, the substances were injected in increasing doses and 8 min. later the CSE reflex induced again. In periods of 15 min each, in logarithmically rising dosage (factor 2), the test substance was injected again and the CSE value induced again. Substances which under these conditions weaken the rise of the blood pressure under CSE can be regarded as vasodilating. To estimate the blood pressure lowering quality, the dose was calculated which weakens the CSE reflex by 30 mm Hg (ED-30 mm Hg).

[2] = tested on: cardiac β-receptors (beta 1); test: Beta-receptor blocking activity: inhibition of isoprenaline (1 mcg/kg i.v.) induced heart rate increase (beta 1-blockage) in rabbits; format: in vivo, rabbit; settings: for β1-Blockade ID30 fcor / β1-Blockade ID50 fcor: i.v., rabbits; for β1-Blockade ID30 fcor: 30% inhibition of isoprenaline effect on heart rate; for β1-Blockade ID50 fcor: 50% inhibition of isoprenaline effect on heart rate
Description: Rabbits were fixed in wooden cages and the blood pressure derived using a catheter placed in the lateral ear artery (details as under 2.). From the blood pressure pulsations, the heart rate was digitally read using an integrator. The beta-receptor blocking quality was determined by measuring inhibitory action against 1 mcg/kg i.v. isoprenaline.

[3] = Tolerability of i.v. doses; settings: in vivo, iv
[4] = dose weakening the CSE reflex by 30 mm Hg, anesthetized rabbits, read-out: Vasodilatation CSE ED-30
[5] = read-out: Vasodilatation CSE ED-30
[6] = statement in text on reference substances, read-out: ED-30 (vasodilating quality)

Row | SMILES | ED (30 mm Hg) [1, 4] [mg/kg] | BQ (ID50 fcor / ED-30 mm Hg) [1] | β1-Blockade ID30 fcor [2] | β1-Blockade ID50 fcor [2] | vasodilating quality (in words) [1] | ED (30 mm Hg) ([1]; read-out: ED-30 (vasodilating quality)) [mg/kg] | ED (30 mm Hg) [1, 5] [mg/kg] | beta-blocking activity (in words) [2] | MTD ([3]; not tolerated at all, read-out: dose above which not tolerated at all) [mg/kg] | MTD ([3]; poorly tolerated, read-out: dose above which poorly tolerated) [mg/kg] | ED (30 mm Hg) [1, 6] [mg/kg]
1 | O=C1Nc2cccc(OCC(O)CNCCOc3ccc(O)cc3)c2C1Cc1ccccc1O (stereo not drawn) [Example 7d, 4-{2-hydroxy-3-[2-(4-hydroxyphenoxy)-ethylamino]-propoxy}-3-(2-hydroxybenzyl)-indolin-2-one cyclohexylsulphaminate] | 0.97 | 0,09 | 27 µg/kg | 85 µg/kg |  |  |  |  |  |  | 
2 | O=C1Nc2cccc(OCC(O)CNCCOc3ccc(O)cc3)c2C1=Cc1ccccc1C(=O)O (stereo not drawn) [Example 1r, 4-{2-hydroxy-3-[2-(4-hydroxyphenoxy)-ethylamino]-propoxy}-3-(2-carboxybenzylidene)-indolin-2-one] | 2.03 | 0,41 | 205 µg/kg | 823 µg/kg |  |  |  |  |  |  | 
3 | CC(C)NCC(O)COc1cccc2c1C(=Cc1ccccc1O)C(=O)N2 (stereo not drawn) [Example 1a, 4-(2-hydroxy-3-isopropylaminopropoxy)-3-(2-hydroxybenzylidene)-indolin-2-one] | 2.71 | 0,12 | 98 µg/kg | 317 µg/kg |  |  |  |  |  |  | 
4 | O=C(O)/C=C/C(=O)O.O=C1Nc2cccc(OCC(O)CNCCOc3ccccc3)c2C1Cc1ccn[nH]1 (stereo not drawn) [Example 7f, 4-[2-hydroxy-3-(2-phenoxyethylamino)-propoxy]-3-(pyrazol-5-yl-methyl)-indolin-2-one fumarate] | 0.43 | 2,37 | 334 µg/kg | 1020 µg/kg |  |  |  |  |  |  | 
5 | CC(C)NCC(O)COc1cccc2ccccc12 (stereo not drawn) [Propranolol, 1-(isopropylamino)-3-(1-naphthyloxy)-2-propanol, reference compound] |  | 0,01 | 126 µg/kg |  | do not have or at least do not have any relevantly vasodilating quality | > 9 | 30 | potent beta-blockers | > 30 | > 10 | 
6 | O=C(O)/C=C/C(=O)O.O=C1Nc2cccc(OCC(O)CNCCOc3ccc(O)cc3)c2C1Cc1ccn[nH]1 (stereo not drawn) [Example 7e, 4-{2-hydroxy-3-[2-(4-hydroxyphenoxy)-ethylamino]-propoxy}-3-(pyrazol-5-yl-methyl)-indolin-2-one fumarate] | 0.54 | 0,47 | 65 µg/kg | 254 µg/kg |  |  |  |  |  |  | 
7 | CC(C)NCC(O)COc1cccc2c1CC(=O)N2 (stereo not drawn) [BM 14.171, 4-(2-hydroxy-3-isopropylaminopropoxy)oxindol, reference compound] | 11.6 | 0,0004 | 1,2 mcg/kg | 4,3 mcg/kg | do not have or at least do not have any relevantly vasodilating quality |  |  | potent beta-blockers |  |  | > 9
8 | COc1ccc(CCNCC(O)COc2cccc3c2CC(=O)N3)cc1 (stereo not drawn) [BM 12.946, 4-<2-hydroxy-3-[2-(4-methoxyphenyl)ethylamino]propoxy>oxindol, reference compound] | 9.13 | 0,02 | 46 µg/kg | 188 µg/kg | do not have or at least do not have any relevantly vasodilating quality |  |  | potent beta-blockers |  |  | > 9
9 | CSc1ccc(C=C2C(=O)Nc3cccc(OCC(O)CNC(C)C)c32)c(O)c1 (stereo not drawn) [Example 1d, 4-(2-hydroxy-3-isopropylaminopropoxy)-3-(2-hydroxy-4-methylthiobenzylidene)-indolin-2-one] | 1.48 | 0,03 | 21 µg/kg | 46 µg/kg |  |  |  |  |  |  | 
10 | O=C(O)c1ccccc1.O=C1Nc2cccc(OCC(O)CNCCOc3ccc(O)cc3)c2C1=Cc1ccccc1O (stereo not drawn) [Example 1p, 4-{2-hydroxy-3-[2-(4-hydroxyphenoxy)-ethylamino]-propoxy}-3-(2-hydroxybenzylidene)-indolin-2-one benzoate] |  | 1,24 | 192 µg/kg | 932 µg/kg |  |  | 0.75 |  |  |  | 
11 | O=C1Nc2cccc(OCC(O)CNCCOc3ccccc3)c2C1=Cc1ccn[nH]1 (stereo not drawn) [Example 1u, 4-[2-hydroxy-3-(2-phenoxyethylamino)-propoxy]-3-(pyrazol-5-yl)-methyleneindolin-2-one] | 0.331 | 0,18 | 9,9 mcg/kg | 58 µg/kg |  |  |  |  |  |  | 

From patent US4642309A, “Indolin-2-one derivatives preparation thereof and intermediates for the preparation thereof” (Boehringer Mannheim GmbH, priority 1983, dated 1987)
